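How tested: cells in 96-well plates exposed to compound for 48 hours at five concentrations. The concentration for 50% growth inhibition is given as GI50. TGI is the concentration that stops growth completely.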
Assays:
Experiment in all cases: NCI anticancer screen, dose series, 48 h
HOP-92 NSCLC = system: HOP-92 NSCLC
MDA-MB-231 breast = system: MDA-MB-231 breast
OVCAR-4 ovarian = system: OVCAR-4 ovarian
RPMI-8226 leukemia = system: RPMI-8226 leukemia
SK-MEL-28 melanoma = system: SK-MEL-28 melanoma
TK-10 renal = system: TK-10 renal
UACC-257 melanoma = system: UACC-257 melanoma
MOLT-4 leukemia = system: MOLT-4 leukemia

Compound | GI50 (HOP-92 NSCLC) [µM] | TGI (HOP-92 NSCLC) [µM] | GI50 (MDA-MB-231 breast) [µM] | TGI (MDA-MB-231 breast) [µM] | GI50 (OVCAR-4 ovarian) [µM] | TGI (OVCAR-4 ovarian) [µM] | GI50 (RPMI-8226 leukemia) [µM] | TGI (RPMI-8226 leukemia) [µM] | GI50 (SK-MEL-28 melanoma) [µM] | TGI (SK-MEL-28 melanoma) [µM] | GI50 (TK-10 renal) [µM] | TGI (TK-10 renal) [µM] | GI50 (UACC-257 melanoma) [µM] | TGI (UACC-257 melanoma) [µM] | GI50 (MOLT-4 leukemia) [µM] | TGI (MOLT-4 leukemia) [µM]
CCC/C(=N/N=C(N)N)c1ccc(NC(=O)c2cc3cc(OC)ccc3[nH]2)cc1 | 1.89 | 12.1 | 11.5 | 29.4 | 3.74 | 18.7 | 2.13 | 5.01 | 10.5 | 40.2 | 17.9 | 39 | 16.2 | 37.5 | – | –
O=C(c1ccco1)c1nc2cc(Cl)ccc2[n+]([O-])c1C(F)(F)F | – | – | 34.2 | > 100 | 29.2 | 75.7 | 10.8 | 44 | 90.1 | > 100 | 44.1 | > 100 | 4.07 | 32.9 | 27.1 | 66.6
COc1cc(-c2nn(-c3cccc(NC(=O)Nc4cc(C(F)(F)F)cc(C(F)(F)F)c4)c3)cc2-c2ccncc2)ccc1Cl | 0.107 | 0.64 | 0.675 | 1.43 | 0.698 | 12.9 | 0.203 | 7.74 | 0.758 | 1.94 | 0.719 | 2.46 | 0.755 | 2.21 | 1.08 | 4.48
CCc1c(C#N)c(S[C@@H](C(N)=O)c2ccccc2)nc(N(C)C)c1C#N | – | – | 10.8 | > 100 | – | – | > 100 | > 100 | – | – | 21.9 | 80.4 | – | – | – | –
Nc1c(Br)cc(Br)c2c1[nH]c(=O)c1ccccc12 | 1.96 | 8.57 | 2.36 | 61.1 | 1.34 | 3.43 | 9.89 | > 100 | > 45.9 | > 100 | 3.67 | 10.9 | 21.7 | > 100 | 18.4 | > 63.8
Cc1ccc(/C=C2/SC(Nc3nc(-c4csc(NC5=NC(=O)/C(=C\c6ccc(C)cc6)S5)n4)cs3)=NC2=O)cc1 | 7.03 | 24.5 | 9.76 | 40.6 | – | – | – | – | 25 | > 50 | 8.49 | 26.6 | 2.81 | 14.6 | 18.5 | > 50
Cc1ccc(-n2c3c(c4c(CN(C)C)c(O)ccc42)CCc2ccccc2C3=O)cc1 | 17.5 | 40 | 14.9 | 31 | – | – | 11 | 30.5 | – | – | 18.9 | 35.6 | 17.7 | 34 | 20.3 | 39.3
O=c1ccn(C2OC(CO/N=C/c3ccc(O)c(O)c3O)C(O)C2O)c(=O)[nH]1 (stereo unspecified) | > 100 | > 100 | 30 | > 100 | 18.9 | 37.8 | 49.5 | > 100 | > 100 | > 100 | > 100 | > 100 | 33.5 | > 100 | – | –
O=C(CNc1ccc2c(c1)C(=O)c1ccccc1C2=O)Nc1ccc2c(c1)C(=O)c1ccccc1C2=O | 1.39 | 2.98 | 1.31 | 4.71 | 1.5 | 4.05 | 0.957 | 3.46 | 1.68 | 3.13 | 1.7 | 3.17 | 1.49 | 2.99 | – | –
Cc1cc(S(N)(=O)=O)c(S/C(CC(C)C)=N\Nc2ccc([N+](=O)[O-])cc2)cc1Cl | – | – | 2.77 | 9.52 | 5.01 | 20.5 | 2.58 | 7.28 | 13.9 | 27.8 | 2.93 | 8.33 | 16.4 | 33.8 | 4.57 | > 100
Fc1ccc2c(c1)c(-c1nc(-c3c[nH]c4ncccc34)cs1)cn2CCCN1CCCCC1 | 1.47 | 2.95 | 1.69 | 3.18 | 1.83 | 4.01 | – | – | 1.75 | 3.26 | 1.85 | 3.42 | 1.92 | 3.7 | – | –
COc1cc2c3c(n(CCCN)c(=O)c2cc1OC)-c1cc2c(cc1/C3=C\CCN)OCO2 | 3.69 | > 49.4 | 2.5 | 11.2 | – | – | 2.01 | > 40.3 | 2.15 | 9.67 | 4.92 | > 28 | 8.29 | 19.2 | 0.0601 | –
O=C1C(=O)c2ccccc2C(O)=C1CC=C(Br)Br | 12.5 | 76.4 | 8.98 | 27 | 11.7 | 75.9 | 1.57 | 31.1 | 12.8 | > 100 | – | – | 11 | 38.4 | 2.83 | > 100
C/C(=N\Nc1cc(C)c2cc(C)ccc2n1)c1ccccn1 | – | – | < 0.0303 | 1.54 | 0.0303 | 0.367 | 0.079 | 1.96 | 0.135 | 1.77 | – | 2.82 | 0.0818 | 0.312 | – | 0.361
O=C1CCCCCCCC/C=C\CC(c2ccco2)O1 (stereo unspecified) | 17 | 94.9 | 14.6 | 41.9 | – | – | 43.2 | > 100 | 31.1 | > 100 | > 100 | > 100 | 24.2 | 72.5 | 20.8 | 65.7
C=C1C(=O)O[C@H]2[C@H]1CC/C(Cn1cc(-c3cc(C(F)(F)F)cc(C(F)(F)F)c3)nn1)=C\CC[C@@]1(C)O[C@@H]21 | 0.344 | 1.44 | 0.333 | 1.06 | 0.508 | 1.8 | 0.221 | 0.522 | 0.465 | 1.65 | – | – | 1.46 | 2.91 | 0.191 | 0.603

— PubChem BioAssay (NCI)
